Literature values as cited in article PMC10151178 (Brain, 2023).

Tested on: IIH patients
Text: The minimal clinically important change in ICP in those with IIH has yet to be determined.[38] […] In this trial ...

For CC(=O)Nc1nnc(S(N)(=O)=O)s1 [acetazolamide], the “Magnitude of treatment effect on ICP between trial arms” value (acetazolamide and diet) is given as 5.9 cmCSF and the “Patients who withdrew due to adverse effects” value (over a 3-month period, previous randomized controlled trial) is given as 48%.
